Measurements reported in patent US8247211B2, “Glycopeptide antibiotics” (American Cyanamid Company, priority 2001, dated 2012).
In brackets after ≈: the same amount, converted by molar mass.

Experiments:
Assay in all cases: In vitro antibacterial evaluation: minimum inhibitory concentration (MIC), broth dilution method
Assay type in all cases: cell-based
[1] = test system: Streptococcus sp.; conditions: 18 hours at 35° C.
In short: (§1)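 Values are minimum inhibitory concentrations, meaning the smallest antibiotic concentration that stops growth of the organism. They come from broth dilution in Muller-Hinton II […] per NCCLS guidance (M7-A2), using 5×10^5 CFU/mL and concentrations from 64 to 0.06 μg/mL.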

[2] = test system: Enterococcus sp.; conditions: 18 hours at 35° C.
In short: as §1

[3] = test system: Staphylococcus sp.
In short: as §1

[4] = test system: Escherichia coli; conditions: 18 hours at 35° C.
In short: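 Inoculum: 5×10^5 CFU/mL. Range: 64-0.06 μg/mL. Medium: Muller-Hinton II […]; NCCLS M7-A2 broth dilution. Endpoint: lowest concentration inhibiting growth. Strains include methicillin-, penicillin- and/or vancomycin-resistant clinical isolates.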

[5] = broth dilution, inoculum 5×10^5 CFU/mL

MIC Streptococcus agalactiae (GC 4564) ([1]; Streptococcus agalactiae (GC 4564)): 0.12 µg/mL (≈ 0.0838 µM)
MIC Streptococcus pneumoniae (ATCC 6301) ([1]; Streptococcus pneumoniae (ATCC 6301)): <0.06 µg/mL
MIC Streptococcus pneumoniae (GC 1894) ([1]; Streptococcus pneumoniae (GC 1894)): <0.06 µg/mL
MIC Streptococcus pneumoniae (GC 4565) ([1]; Streptococcus pneumoniae (GC 4565)): <0.06 µg/mL
MIC Streptococcus pyogenes (GC 4563) ([1]; Streptococcus pyogenes (GC 4563)): 0.12 µg/mL (≈ 0.0838 µM)
MIC Streptococcus agalactiae (GC 4564) [1, 5]: 0.12 µg/mL (≈ 0.0838 µM)
MIC Streptococcus pneumoniae (ATCC 6301) [1, 5]: <0.06 µg/mL
MIC Streptococcus pneumoniae (GC 1894) [1, 5]: <0.06 µg/mL
MIC Streptococcus pneumoniae (GC 4565) [1, 5]: <0.06 µg/mL
MIC Streptococcus pyogenes (GC 4563) [1, 5]: 0.12 µg/mL (≈ 0.0838 µM)
MIC Enterococcus avium (GC 4558) ([2]; Enterococcus avium (GC 4558)): 4 µg/mL (≈ 2.79 µM)
MIC Enterococcus faecalis (ATCC 29212) ([2]; Enterococcus faecalis (ATCC 29212)): 8 µg/mL (≈ 5.59 µM)
MIC Enterococcus faecalis (GC 2242) ([2]; Enterococcus faecalis (GC 2242)): 8 µg/mL (≈ 5.59 µM)
MIC Enterococcus faecalis (GC 2691) ([2]; Enterococcus faecalis (GC 2691)): 8 µg/mL (≈ 5.59 µM)
MIC Enterococcus faecalis (GC 3059) ([2]; Enterococcus faecalis (GC 3059)): 8 µg/mL (≈ 5.59 µM)
MIC Enterococcus faecalis (GC 4552) ([2]; Enterococcus faecalis (GC 4552)): 8 µg/mL (≈ 5.59 µM)
MIC Enterococcus faecalis (GC 4553) ([2]; Enterococcus faecalis (GC 4553)): 8 µg/mL (≈ 5.59 µM)
MIC Enterococcus faecalis (GC 4554) ([2]; Enterococcus faecalis (GC 4554)): 8 µg/mL (≈ 5.59 µM)
MIC Enterococcus faecalis (GC 6189) ([2]; Enterococcus faecalis (GC 6189)): 8 µg/mL (≈ 5.59 µM)
MIC Enterococcus faecium (GC 2243) ([2]; Enterococcus faecium (GC 2243)): 8 µg/mL (≈ 5.59 µM)
MIC Enterococcus faecium (GC 4556) ([2]; Enterococcus faecium (GC 4556)): 8 µg/mL (≈ 5.59 µM)
MIC Enterococcus faecium (GC 4557) ([2]; Enterococcus faecium (GC 4557)): 8 µg/mL (≈ 5.59 µM)
MIC Enterococcus avium (GC 4558) [2, 5]: 4 µg/mL (≈ 2.79 µM)
MIC Enterococcus faecalis (ATCC 29212) [2, 5]: 8 µg/mL (≈ 5.59 µM)
MIC Enterococcus faecalis (GC 2242) [2, 5]: 8 µg/mL (≈ 5.59 µM)
MIC Enterococcus faecalis (GC 2691) [2, 5]: 8 µg/mL (≈ 5.59 µM)
MIC Enterococcus faecalis (GC 3059) [2, 5]: 8 µg/mL (≈ 5.59 µM)
MIC Enterococcus faecalis (GC 4552) [2, 5]: 8 µg/mL (≈ 5.59 µM)
MIC Enterococcus faecalis (GC 4553) [2, 5]: 8 µg/mL (≈ 5.59 µM)
MIC Enterococcus faecalis (GC 4554) [2, 5]: 8 µg/mL (≈ 5.59 µM)
MIC Enterococcus faecalis (GC 6189) [2, 5]: 8 µg/mL (≈ 5.59 µM)
MIC Enterococcus faecium (GC 2243) [2, 5]: 8 µg/mL (≈ 5.59 µM)
MIC Enterococcus faecium (GC 4556) [2, 5]: 8 µg/mL (≈ 5.59 µM)
MIC Enterococcus faecium (GC 4557) [2, 5]: 8 µg/mL (≈ 5.59 µM)
MIC Staphylococcus aureus (ATCC 29213) ([3]; strain ATCC 29213): 4 µg/mL (≈ 2.79 µM)
MIC Staphylococcus aureus (GC 1131) ([3]; strain GC 1131): 8 µg/mL (≈ 5.59 µM)
MIC Staphylococcus aureus (GC 3051) ([3]; strain GC 3051): 4 µg/mL (≈ 2.79 µM)
MIC Staphylococcus aureus (GC 3053) ([3]; strain GC 3053): 4 µg/mL (≈ 2.79 µM)
MIC Staphylococcus aureus (GC 4541) ([3]; strain GC 4541): 8 µg/mL (≈ 5.59 µM)
MIC Staphylococcus aureus (GC 4542) ([3]; strain GC 4542): 4 µg/mL (≈ 2.79 µM)
MIC Staphylococcus aureus-SMITH (GC 4543) ([3]; strain GC 4543): 4 µg/mL (≈ 2.79 µM)
MIC Staphylococcus aureus (GC 4544) ([3]; strain GC 4544): 8 µg/mL (≈ 5.59 µM)
MIC Staphylococcus aureus (GC 4545) ([3]; strain GC 4545): 4 µg/mL (≈ 2.79 µM)
MIC Coagulase Negative Staphylococcus (GC 4547) ([3]; strain GC 4547): 4 µg/mL (≈ 2.79 µM)
MIC Coagulase Negative Staphylococcus (GC 4548) ([3]; strain GC 4548): 4 µg/mL (≈ 2.79 µM)
MIC Coagulase Negative Staphylococcus (GC 4549) ([3]; strain GC 4549): 4 µg/mL (≈ 2.79 µM)
MIC Coagulase Negative Staphylococcus (GC 4551) ([3]; strain GC 4551): 4 µg/mL (≈ 2.79 µM)
MIC Coagulase Negative Staphylococcus (GC 6257) ([3]; strain GC 6257): 4 µg/mL (≈ 2.79 µM)
MIC Escherichia coli (ATCC 25922) ([4]; Escherichia coli (ATCC 25922)): 64 µg/mL (≈ 44.7 µM)
MIC Escherichia coli (GC 4559) ([4]; Escherichia coli (GC 4559)): >64 µg/mL
MIC Escherichia coli (GC 4560) ([4]; Escherichia coli (GC 4560)): 8 µg/mL (≈ 5.59 µM)
Structure (SMILES): CC(c1ccccc1)C1NC(=O)CNC(=O)C(CO)NC(=O)C(C(O)C2CNC(=N)N2C2OC(CO)C(O)C(O)C2O)NC(=O)C(C(O)C2CNC(=N)N2)NC(=O)C(Cc2ccc(OC3OC(CO)C(OC4OC5COC6(CCC(C(C)(C)C)CC6)OC5C(O)C4O)C(O)C3O)cc2)NC1=O (stereo not drawn) [Example 208, Cyclo[glycyl-β-methylphenylalanyl-O-[4-O-[4,6-O-(4-tert, butylcyclohexylidene)hexopyranosyl]hexopyranosyl]tyrosyl-3-(2-iminoimidazolidin-4-yl)seryl-3-(3-hexopyranosyl-2-iminoimidazolidin-4-yl)serylseryl]]
MIC Staphylococcus haemolyticus (GC 4546) ([3]; strain GC 4546): 4 µg/mL (≈ 2.79 µM)
